Measurements from PMC12358834, “Structural basis for anaerobic alkane activation by a multisubunit glycyl radical enzyme” (Proceedings of the National Academy of Sciences of the …, 2025).

Legend:
[1] = biological target: T1, MASS; (1-methylalkyl)succinate synthase; MASSα2βγ2δ complex (Azoarcus sp. HxN1, UniProt A9J4K4); assay: cryo-EM structure of the complex, […] Å; assay type: binding; conditions: active site of MASSα (αβγδ side); anaerobic; no alkane present; DTT modelled in hydrocarbon site; no glycyl radical activation described
T1 construct: gene masD; full-length subunits co-expressed in E. coli NiCo21(DE3); N-terminal His tag on MASSα; asymmetric alpha2-beta-gamma2-delta complex; [4Fe-4S] in beta and gamma, single Fe in delta; with (1-methylalkyl)succinate synthase beta subunit; (1-methylalkyl)succinate synthase gamma subunit; (1-methylalkyl)succinate synthase delta subunit (rubredoxin-like)

[2] = biological target: (1-methylalkyl)succinate synthase catalytic α-subunit (MASSα), protein product of masD (Azoarcus sp. strain HxN1); assay: cryo-EM structure; single-particle cryo-EM of the co-expressed, purified MASS complex (SEC fractions with dimeric MASSα), grids prepared anaerobically, 0.8 mg/mL, fumarate and DTT bound; 2.8 Å map (a first data set gave 7 Å)

T1 sequence (A9J4K4 1-839): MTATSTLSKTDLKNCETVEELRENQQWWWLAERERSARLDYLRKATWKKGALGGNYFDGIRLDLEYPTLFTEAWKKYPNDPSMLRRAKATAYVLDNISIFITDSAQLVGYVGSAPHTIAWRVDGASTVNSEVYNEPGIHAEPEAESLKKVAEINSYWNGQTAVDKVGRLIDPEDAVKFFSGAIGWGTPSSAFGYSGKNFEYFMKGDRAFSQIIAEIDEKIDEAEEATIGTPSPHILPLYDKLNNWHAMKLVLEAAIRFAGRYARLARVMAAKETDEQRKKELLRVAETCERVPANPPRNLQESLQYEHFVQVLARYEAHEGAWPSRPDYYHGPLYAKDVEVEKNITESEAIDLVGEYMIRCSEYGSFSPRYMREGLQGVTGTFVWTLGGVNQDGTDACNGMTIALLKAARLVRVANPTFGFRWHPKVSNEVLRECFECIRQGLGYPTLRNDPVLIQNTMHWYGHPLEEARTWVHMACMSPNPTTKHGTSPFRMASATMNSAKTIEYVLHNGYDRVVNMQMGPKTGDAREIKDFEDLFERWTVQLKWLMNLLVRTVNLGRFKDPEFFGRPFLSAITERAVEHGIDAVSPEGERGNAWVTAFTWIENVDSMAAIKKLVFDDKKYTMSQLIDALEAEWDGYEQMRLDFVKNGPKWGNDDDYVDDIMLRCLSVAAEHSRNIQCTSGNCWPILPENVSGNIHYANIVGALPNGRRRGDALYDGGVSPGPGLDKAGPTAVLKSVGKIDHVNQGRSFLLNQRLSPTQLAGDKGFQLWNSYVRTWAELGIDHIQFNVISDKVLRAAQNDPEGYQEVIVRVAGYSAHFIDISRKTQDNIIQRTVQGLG
T1 sequence (A9J4K2 1-61 partner): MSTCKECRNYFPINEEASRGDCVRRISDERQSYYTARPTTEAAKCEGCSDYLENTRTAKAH
T1 sequence (A9J4K0 1-120 partner): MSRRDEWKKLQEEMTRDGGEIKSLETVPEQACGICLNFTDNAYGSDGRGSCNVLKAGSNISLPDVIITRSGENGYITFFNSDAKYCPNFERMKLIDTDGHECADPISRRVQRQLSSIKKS
T1 sequence (A9J4K6 1-71 partner): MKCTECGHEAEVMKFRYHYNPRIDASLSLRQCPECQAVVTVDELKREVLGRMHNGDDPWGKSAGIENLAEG

| Molecule | cryo-EM structure of the complex, 2.8 Å [1] | stoichiometry N [2] |
| --- | --- | --- |
| O=C(O)/C=C/C(=O)O [fumarate] | Density was observed for fumarate in a similar location as was observed for the fumarate | – |
| (1-methylalkyl)succinate synthase catalytic α-subunit (MASSα), protein product of masD (enzyme) | – | 2 |
